Key:
Type in all cases: functional
[1] = system: SK-MEL-2; experiment: Cytotoxicity against human SK-MEL-2 after 48 hrs by SRB assay; details: SK-MEL-2, 48 h
[2] = system: PC-3; experiment: Cytotoxicity against human PC3 after 48 hrs by SRB assay; details: PC-3, 48 h
[3] = system: 786-0; experiment: Cytotoxicity against human 786-0 after 48 hrs by SRB assay; details: 786-0, 48 h
[4] = system: MOLT-4; experiment: Cytotoxicity against human MOLT4 after 48 hrs by SRB assay; details: MOLT-4, 48 h
[5] = system: DU-145; experiment: Cytotoxicity against human DU145 after 48 hrs by SRB assay; details: DU-145, 48 h
[6] = system: SW-620; experiment: Cytotoxicity against human SW620 after 48 hrs by SRB assay; details: SW-620, 48 h
[7] = system: OVCAR-3; experiment: Cytotoxicity against human OVCAR3 after 48 hrs by SRB assay; details: OVCAR-3, 48 h
[8] = system: SR; experiment: Cytotoxicity against human SR after 48 hrs by SRB assay
[9] = Cytotoxicity against human HL-60(TB) after 48 hrs by SRB assay; details: HL-60, 48 h
[10] = system: OVCAR-4; experiment: Cytotoxicity against human OVCAR4 after 48 hrs by SRB assay; details: OVCAR-4, 48 h
[11] = system: HOP-62; experiment: Cytotoxicity against human HOP62 after 48 hrs by SRB assay; details: HOP-62, 48 h
[12] = system: NCI-H322M; experiment: Cytotoxicity against human NCI-H322M after 48 hrs by SRB assay
[13] = system: A498; experiment: Cytotoxicity against human A498 after 48 hrs by SRB assay; details: A498, 48 h
[14] = Cytotoxicity against human EKVX after 48 hrs by SRB assay
[15] = system: ACHN; experiment: Cytotoxicity against human ACHN after 48 hrs by SRB assay
[16] = system: HOP-92; experiment: Cytotoxicity against human HOP92 after 48 hrs by SRB assay; details: HOP-92, 48 h
[17] = read-out: LC50 (the source's name)

COc1cc(/C=C2\CN(C)CC3=C2Nc2nc(SC)[nH]c(=O)c2C3c2cc(OC)c(OC)c(OC)c2)cc(OC)c1OC (configuration not stated)
GI50 [1]: 9.92 µM | CC50 [1, 17]: > 100 µM | GI50 [2]: 3.63 µM | CC50 [2, 17]: > 100 µM | GI50 [3]: 4.01 µM | CC50 [3, 17]: 87.3 µM | GI50 [4]: 2.92 µM | CC50 [4, 17]: > 100 µM | GI50 [5]: 3.6 µM | CC50 [5, 17]: 34.8 µM | GI50 [6]: 2 µM | CC50 [6, 17]: 9.69 µM | GI50 [7]: 2.64 µM | CC50 [7, 17]: 23.4 µM | GI50 [8]: 1.48 µM | CC50 [8, 17]: > 100 µM | GI50 [9]: 2.26 µM | CC50 [9, 17]: > 100 µM | GI50 [10]: 4.99 µM | CC50 [10, 17]: 81 µM | GI50 [11]: 2.46 µM | CC50 [11, 17]: 41.3 µM | GI50 [12]: 6.6 µM | CC50 [12, 17]: 46.1 µM | GI50 [13]: 9.58 µM | CC50 [13, 17]: 46.7 µM | GI50 [14]: 8.44 µM | CC50 [14, 17]: > 100 µM | GI50 [15]: 1.93 µM | CC50 [15, 17]: 6.53 µM | GI50 [16]: 3.4 µM | CC50 [16, 17]: 53.4 µM

Source: ChEMBL document CHEMBL2311467, “Microwave-assisted synthesis of pyrimido[4,5-b][1,6]naphthyridin-4(3H)-ones with potential antitumor activity” (Eur J Med Chem, 2013)
